Reference: publication PMC11999280, “Design and screening of novel endosomal escape compounds that enhance functional delivery of oligonucleotides in vitro” (Molecular Therapy. Nucleic Acids, 2025)

How the values were obtained:
Format in all cases: cell-based
[1] = system: mCherry-GAL9 expressing 16HBE cells; experiment: GAL9 recruitment assay, 16HBE; conditions: calculated mean from >3 independent exp.
Experimental: (§1) Experiments assessing GAL9 localization as an indicator for endosomal remodeling were performed as previously described[15] using 8× stablemCherry-GAL9 expressing cell lines, SHSY5Y, U2OS, 16HBE, NCI-H358, HuH7, HepG2, HEK293, and HeLa. For mCherry-GAL9 recruitment, 3,000 or 6,500 cells/well (depending upon cell line) were seeded into 384-well CellCarrier Ultra plates 24 h prior to treatment (PerkinElmer, catalog no. 6007558). An Echo 655T acoustic dispenser (Labcyte) was used for EEE dose-response preparation by transferring to the cell plate. At assay endpoints, cells were PBS washed, 4% paraformaldehyde fixed at room temperature […] (VWR, catalog no. 9713.1000), and nuclei stained with PBS +1 μg/mL Hoechst 33342 (Thermo Fisher Scientific, catalog no. H21492).
(§2) Imaging was performed using a spinning-disk confocal microscope (Yokogawa: CV8000) with a ×20w objective (numerical aperture 1.0). Cells and mCherry-GAL9 structure identification and quantification were done using Columbus image-analysis software (PerkinElmer version 2.9.0). Data processing was done using Spotfire (Tibco version 11.4) and Prism (GraphPad version 9.1.0). Image panels were assembled using the FigureJ plugin for FIJI.[43] All mCherry-GAL9 experiments were performed three times (N = 3) with duplicated wells per treatment (n = 2).

[2] = system: mCherry-GAL9 expressing HEK293 cells; experiment: GAL9 recruitment assay, HEK293; conditions: calculated mean from >3 independent exp.
Experimental: as §1, §2

[3] = system: mCherry-GAL9 expressing HeLa cells; experiment: GAL9 recruitment assay, HeLa; conditions: calculated mean from >3 independent exp.
Experimental: as §1, §2

[4] = system: mCherry-GAL9 expressing HepG2 cells; experiment: GAL9 recruitment assay, HepG2; conditions: calculated mean from >3 independent exp.
Experimental: as §1, §2

[5] = system: mCherry-GAL9 expressing HuH7 cells; experiment: GAL9 recruitment assay, HuH7; conditions: calculated mean from >3 independent exp.
Experimental: as §1, §2

[6] = system: mCherry-GAL9 expressing NCI-H358 cells; experiment: GAL9 recruitment assay, NCI-H358; conditions: calculated mean from >3 independent exp.
Experimental: as §1, §2

[7] = system: mCherry-GAL9 expressing SHSY5Y cells; experiment: GAL9 recruitment assay, SHSY5Y; conditions: calculated mean from >3 independent exp.
Experimental: as §1, §2

[8] = system: mCherry-GAL9 expressing U2OS cells; experiment: GAL9 recruitment assay, U2OS; conditions: calculated mean from >3 independent exp.
Experimental: as §1, §2

[9] = system: HeLa_Luc705 cells (pLuc/705 splice-switching reporter); experiment: Functional 705-SSO delivery, luciferase splice-switching assay; conditions: HeLa-Luc705 + 2 µM SSO; EEE 2.5 - 3 µM; mean from >3 independent experiments
Source text: Therefore, next, we functionally screened the SSO delivery in the HeLa_Luc705 reporter cell line. HeLa_Luc705 carries a pLuc/705 splice-switching reporter luciferase gene interrupted by a mutated β-globin intron, which creates a preferentially used cryptic 5′ splice site leading to aberrant splicing. Functional SSO delivery masks the cryptic site, redirecting the splicing machinery to the right splicing site, allowing the measurement of luciferase expression (Figure S1).[25]^,[26]^,[27]^,[28] We used SSO transfection with LF2000 as transfection control and the previously published endosomal escape enhancer CMP05 (here, EEE2) as positive control.[15]
For the assessment of functional SSO therapeutics, a HeLa_Luc705 cell line was grown in DMEM media supplemented with 10% fetal bovine serum (FBS). For most treatments, 10,000 cells/well were seeded in a 96-well plate, 24 h pre-incubated with 1- to 2-μM oligonucleotide, and then treated at the described EEE concentration. At 24 h post-treatment, cells were PBS rinsed and collected for further analysis (treatments and incubation times changed accordingly to the experiment design). Luciferase readout was performed as previously described,[15] using a GloMax 96-well plate microplate luminometer (Promega) immediately after adding 30 μL auto-injected luciferin substrate (Promega Firefly Luciferase Assay System; Thermo Scientific, catalog no. 16174) in a white-walled 96-well plate containing 30 μL 0.1% Triton X-100 (Sigma-Aldrich) cell lysed. Photon exposure time and delay were set to 10 and 2 s after injection. LF2000 was used as the transfection reagent control (Thermo Scientific, catalog no. 11668019). For EEE experiments using 1 or 2 μM SSOs, the control was prepared using lipofection with 100–200 nM SSO; this is to avoid complex induced cell toxicity.
705-SSO was purchased from and synthesized by Integrated DNA Technologies. The 705-SSO sequence was previously published, containing 2′-O-methylated bases and only phosphorothioate-saturated backbone linkages were included.[15] The 705-SSO was high-performance liquid chromatography purified, shipped, and stored in IDTE buffer (10 mM Tris, 0.1 mM EDTA).

For COc1nn(C2CCN(C)CC2)cc1Nc1ncc(F)c(-n2ccc3ccc(C#N)cc32)n1 [EEE14], the “Gal9 response compared to reference” value ([1]; EEE 0.31 µM) was 0.010, the “Gal9 response compared to reference” value ([1]; EEE 0.62 µM) was 0.013 and the “Gal9 response compared to reference” value ([1]; EEE 1.25 µM) was 0.014. The “Gal9 response compared to reference” value ([1]; EEE 2.5 µM) was 0.031, the “Gal9 response compared to reference” value ([1]; EEE 5 µM) was 0.118 and the “Gal9 response compared to reference” value ([1]; EEE 10 µM) was 0.421. For the same molecule, the “Gal9 response compared to reference” value ([2]; EEE 0.31 µM) was 0.023, the “Gal9 response compared to reference” value ([2]; EEE 0.62 µM) was 0.019 and the “Gal9 response compared to reference” value ([2]; EEE 1.25 µM) was 0.018. For the same molecule, the “Gal9 response compared to reference” value ([2]; EEE 2.5 µM) was 0.035, the “Gal9 response compared to reference” value ([2]; EEE 5 µM) was 0.123 and the “Gal9 response compared to reference” value ([2]; EEE 10 µM) was 0.443. For the same molecule, the “Gal9 response compared to reference” value ([3]; EEE 0.31 µM) was 0.005, the “Gal9 response compared to reference” value ([3]; EEE 0.62 µM) was 0.005 and the “Gal9 response compared to reference” value ([3]; EEE 1.25 µM) was 0.004. For the same molecule, the “Gal9 response compared to reference” value ([3]; EEE 2.5 µM) was 0.006, the “Gal9 response compared to reference” value ([3]; EEE 5 µM) was 0.035 and the “Gal9 response compared to reference” value ([3]; EEE 10 µM) was 0.213. The “Gal9 response compared to reference” value ([4]; EEE 0.31 µM) was 0.008, the “Gal9 response compared to reference” value ([4]; EEE 0.62 µM) was 0.005 and the “Gal9 response compared to reference” value ([4]; EEE 1.25 µM) was 0.005. For the same molecule, the “Gal9 response compared to reference” value ([4]; EEE 2.5 µM) was 0.005, the “Gal9 response compared to reference” value ([4]; EEE 5 µM) was 0.015 and the “Gal9 response compared to reference” value ([4]; EEE 10 µM) was 0.155. The “Gal9 response compared to reference” value ([5]; EEE 0.31 µM) was 0.009, the “Gal9 response compared to reference” value ([5]; EEE 0.62 µM) was 0.007 and the “Gal9 response compared to reference” value ([5]; EEE 1.25 µM) was 0.010. For the same molecule, the “Gal9 response compared to reference” value ([5]; EEE 2.5 µM) was 0.016, the “Gal9 response compared to reference” value ([5]; EEE 5 µM) was 0.047 and the “Gal9 response compared to reference” value ([5]; EEE 10 µM) was 0.280. The “Gal9 response compared to reference” value ([6]; EEE 0.31 µM) was 0.015, the “Gal9 response compared to reference” value ([6]; EEE 0.62 µM) was 0.019 and the “Gal9 response compared to reference” value ([6]; EEE 1.25 µM) was 0.019. For the same molecule, the “Gal9 response compared to reference” value ([6]; EEE 2.5 µM) was 0.026, the “Gal9 response compared to reference” value ([6]; EEE 5 µM) was 0.073 and the “Gal9 response compared to reference” value ([6]; EEE 10 µM) was 0.457. The “Gal9 response compared to reference” value ([7]; EEE 0.31 µM) was 0.013, the “Gal9 response compared to reference” value ([7]; EEE 0.62 µM) was 0.014 and the “Gal9 response compared to reference” value ([7]; EEE 1.25 µM) was 0.017. The “Gal9 response compared to reference” value ([7]; EEE 2.5 µM) was 0.083, the “Gal9 response compared to reference” value ([7]; EEE 5 µM) was 0.403 and the “Gal9 response compared to reference” value ([7]; EEE 10 µM) was 0.645. The “Gal9 response compared to reference” value ([8]; EEE 0.31 µM) was 0.013, the “Gal9 response compared to reference” value ([8]; EEE 0.62 µM) was 0.013 and the “Gal9 response compared to reference” value ([8]; EEE 1.25 µM) was 0.015. For the same molecule, the “Gal9 response compared to reference” value ([8]; EEE 2.5 µM) was 0.023, the “Gal9 response compared to reference” value ([8]; EEE 5 µM) was 0.058 and the “Gal9 response compared to reference” value ([8]; EEE 10 µM) was 0.232. The “Luciferase expression compared to reference” value [9] was 0.590.

In the case of CCCN1CCC(n2cc(Nc3ncc(F)c(-n4ccc5c(C#N)cccc54)n3)c(OC)n2)CC1 [EEE10], the “Gal9 response compared to reference” value ([1]; EEE 0.31 µM) was 0.010, the “Gal9 response compared to reference” value ([1]; EEE 0.62 µM) was 0.011 and the “Gal9 response compared to reference” value ([1]; EEE 1.25 µM) was 0.028. The “Gal9 response compared to reference” value ([1]; EEE 2.5 µM) was 0.183, the “Gal9 response compared to reference” value ([1]; EEE 5 µM) was 0.522 and the “Gal9 response compared to reference” value ([1]; EEE 10 µM) was 0.746. For the same molecule, the “Gal9 response compared to reference” value ([2]; EEE 0.31 µM) was 0.023, the “Gal9 response compared to reference” value ([2]; EEE 0.62 µM) was 0.026 and the “Gal9 response compared to reference” value ([2]; EEE 1.25 µM) was 0.051. The “Gal9 response compared to reference” value ([2]; EEE 2.5 µM) was 0.379, the “Gal9 response compared to reference” value ([2]; EEE 5 µM) was 0.672 and the “Gal9 response compared to reference” value ([2]; EEE 10 µM) was 0.647. The “Gal9 response compared to reference” value ([3]; EEE 0.31 µM) was 0.005, the “Gal9 response compared to reference” value ([3]; EEE 0.62 µM) was 0.005 and the “Gal9 response compared to reference” value ([3]; EEE 1.25 µM) was 0.005. For the same molecule, the “Gal9 response compared to reference” value ([3]; EEE 2.5 µM) was 0.145, the “Gal9 response compared to reference” value ([3]; EEE 5 µM) was 0.463 and the “Gal9 response compared to reference” value ([3]; EEE 10 µM) was 0.588. The “Gal9 response compared to reference” value ([4]; EEE 0.31 µM) was 0.008, the “Gal9 response compared to reference” value ([4]; EEE 0.62 µM) was 0.007 and the “Gal9 response compared to reference” value ([4]; EEE 1.25 µM) was 0.007. For the same molecule, the “Gal9 response compared to reference” value ([4]; EEE 2.5 µM) was 0.008, the “Gal9 response compared to reference” value ([4]; EEE 5 µM) was 0.026 and the “Gal9 response compared to reference” value ([4]; EEE 10 µM) was 0.371. The “Gal9 response compared to reference” value ([5]; EEE 0.31 µM) was 0.011, the “Gal9 response compared to reference” value ([5]; EEE 0.62 µM) was 0.009 and the “Gal9 response compared to reference” value ([5]; EEE 1.25 µM) was 0.016. The “Gal9 response compared to reference” value ([5]; EEE 2.5 µM) was 0.121, the “Gal9 response compared to reference” value ([5]; EEE 5 µM) was 0.252 and the “Gal9 response compared to reference” value ([5]; EEE 10 µM) was 0.414. The “Gal9 response compared to reference” value ([6]; EEE 0.31 µM) was 0.017, the “Gal9 response compared to reference” value ([6]; EEE 0.62 µM) was 0.016 and the “Gal9 response compared to reference” value ([6]; EEE 1.25 µM) was 0.031. For the same molecule, the “Gal9 response compared to reference” value ([6]; EEE 2.5 µM) was 0.194, the “Gal9 response compared to reference” value ([6]; EEE 5 µM) was 0.633 and the “Gal9 response compared to reference” value ([6]; EEE 10 µM) was 0.662. The “Gal9 response compared to reference” value ([7]; EEE 0.31 µM) was 0.015, the “Gal9 response compared to reference” value ([7]; EEE 0.62 µM) was 0.024 and the “Gal9 response compared to reference” value ([7]; EEE 1.25 µM) was 0.123. For the same molecule, the “Gal9 response compared to reference” value ([7]; EEE 2.5 µM) was 0.877, the “Gal9 response compared to reference” value ([7]; EEE 5 µM) was 0.887 and the “Gal9 response compared to reference” value ([7]; EEE 10 µM) was 0.717. For the same molecule, the “Gal9 response compared to reference” value ([8]; EEE 0.31 µM) was 0.011, the “Gal9 response compared to reference” value ([8]; EEE 0.62 µM) was 0.012 and the “Gal9 response compared to reference” value ([8]; EEE 1.25 µM) was 0.016. For the same molecule, the “Gal9 response compared to reference” value ([8]; EEE 2.5 µM) was 0.076, the “Gal9 response compared to reference” value ([8]; EEE 5 µM) was 0.260 and the “Gal9 response compared to reference” value ([8]; EEE 10 µM) was 0.512. For the same molecule, the “Luciferase expression compared to reference” value [9] was 0.565.
